Source: patent publication US10501479B2, “Benzenesulfonyl-asymmetric ureas and medical uses thereof” (HELSINN HEALTHCARE SA, priority 2016, dated 2019)
Where two headings read alike, the source gives them in different places.

How the values were obtained:
[1] = target: T1, recombinant human ghrelin receptor (HEK293/GRLN) (Homo sapiens, UniProt Q92847); test: Ghrelin inverse agonist potency (EC50) with IP-1 (IP-One HTRF) assay; type: cell-based; conditions: IP-1 assay
T1 construct: expressed in transfected cells
T1 sequence (Q92847 whole entry): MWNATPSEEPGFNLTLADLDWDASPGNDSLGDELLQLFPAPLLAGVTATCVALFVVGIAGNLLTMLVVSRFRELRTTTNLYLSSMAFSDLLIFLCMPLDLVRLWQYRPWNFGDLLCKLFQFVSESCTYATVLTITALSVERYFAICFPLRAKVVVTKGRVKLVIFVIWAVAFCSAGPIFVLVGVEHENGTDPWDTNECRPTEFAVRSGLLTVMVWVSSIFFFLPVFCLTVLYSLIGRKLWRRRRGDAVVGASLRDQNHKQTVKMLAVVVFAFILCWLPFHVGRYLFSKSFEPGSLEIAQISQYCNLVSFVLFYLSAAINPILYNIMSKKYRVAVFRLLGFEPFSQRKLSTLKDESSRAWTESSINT
Procedure, shortened: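 HEK293/GRLN cells were seeded 18-22 hours before the test, then exposed to compound in stimulation buffer for 1 hour at 37° C, 5% CO2. IP-1 was detected by IP-One HTRF (IP1-d2 plus Tb-cryptate, 1 hour RT), reading 620 and 665 nm; the inverse agonist EC50 was derived from this.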

[2] = target: T2, GHSR-1a (HEK293/GHSR1a cell line) (Homo sapiens, UniProt Q92847); test: Ghrelin antagonist potency (IC50) with calcium FLIPR assay, ghrelin 10 nM; type: cell-based
T2 construct: expressed in transfected cells; host or cells: HEK293/GHSR1a cell line
T2 sequence (Q92847 whole entry): as above
Procedure, shortened: (§1)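 Dye preload 30-60 min, RT or 37° C; compound in DMSO. Agonist mode: compound at t=20 sec, Ca2+ read 2 min. Antagonist mode: compound + ghrelin 10 nM at t=20 sec, 2 min read. EC50/IC50 from dose-response curves.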

[3] = Metabolic stability in human liver microsomes; type: in vitro ADME
Experimental: (§2) Metabolic Stability Study
(§3) The metabolic stability of compounds in human, dog, rat and mouse liver microsomes was performed according the experimental conditions reported below:
(§4) • a) Prepare the following 5 stock solutions: • 1. Test compound stock solutions: dilute 10 mM solution of dextromethorphan (Dtr) in DMSO, 10 mM solution of diphenhydramine (DPA) in DMSO, 10 mM solution of omeprazole (Ome) in DMSO, 10 mM solution of verapamil (Ver) in DMSO, and 10 mM of an inverse agonist compound in DMSO to 0.25 mM solution each with acetonitrile/water (70/30). • 2. Buffer: 100 mM potassium phosphate Buffer (PBS) at pH 7.4 • 3. Liver microsomes (20 mg/ml): Thaw in 37° C. water bath quickly • 4. 2000 μL: of NADPH regenerating system (1.3 mM). Place this system on ice before use:
(§5) • 5. […] The test compound concentration in the wells, measured by LC-MS/MS, represents the concentration at time=0. • f) To determine the test compound concentration when t≠0, pre-incubate the NADPH regenerating system and the incubation plate containing the remaining 320 μL of incubation mixture (microsomes protein and test compound) for 5 minutes at 37° C. • g) Start the incubation reaction by adding 80 μL NADPH regenerating system to each well containing the remaining 320 μL incubation mixture. • h) After 10 min., 30 min., and 90 min. of incubation at 37° C., transfer 100 μL of the incubation mixture (microsomes protein, test compound, and NADPH) into the wells of a stop plate pre-filled with 300 μL of the cold quench solution. Shake well. • i) Centrifuge the stop plate at 5000×g for 10 minutes. Collect and dilute the supernatant 3 times with distilled water. Sample and analyze the test compound concentration for all the wells by LC-MS/MS. Animal PK Studies via i.v. (intravenous), p.o. (orally) and s.c. (subcutaneous) administrations

[4] = target: T2, GHSR-1a (HEK293/GHSR1a cell line); test: Ghrelin agonist potency (EC50) with calcium FLIPR assay; type: cell-based
Procedure, shortened: as §1

[5] = Metabolic stability in mouse liver microsomes; type: in vitro ADME
Experimental: as §2, §3, §4, §5

[6] = HEK293/GRLN, read-out: Activity EC50 (ghrelin inverse agonist potency)
[7] = HEK293/GHSR1a, ghrelin 10 nM, read-out: Activity IC50 (ghrelin antagonist potency)
[8] = HEK293/GHSR1a, read-out: Activity EC50/EMax: EC50 (ghrelin agonist potency)
[9] = ghrelin inverse agonist potency, read-out: Activity EC50
[10] = ghrelin agonist potency, read-out: Activity EC50/EMax

Structure (SMILES)	EC50 [1, 6] [µM]	IC50 [2, 7] [µM]	Metabolic Stability Study H = human [3] [µL/min/mg]	EC50 [4, 8] [µM]	Metabolic Stability Study M = mouse [5] [µL/min/mg]	EC50 [1, 9] [µM]	IC50 ([2]; ghrelin antagonist potency, read-out: Activity IC50) [µM]	EC50 [4, 10] [µM]
CC(NC(=O)Nc1ccc(S(=O)(=O)Cc2ccc3c(c2)CNC3)cc1)c1c(F)cccc1F (centres unmarked) [H1391, 1-(1-(2,6-difluorophenyl)ethyl)-3-(4-((isoindolin-5-ylmethyl)sulfonyl)phenyl)urea]	0.0072	0.0105	14.8	> 30	11.8	–	–	–
C[C@@H](NC(=O)Nc1ccc(S(=O)(=O)Cc2cc(F)c3c(c2)CN(C)C3)cc1)c1ccccc1 [H1355, (R)-1-(4-(((7-fluoro-2-methylisoindolin-5-yl)methyl)sulfonyl)phenyl)-3-(1-phenylethyl)urea]	0.0129	0.041	153.5	> 30	304.3	–	–	–
CC1c2ccccc2CCN1C(=O)Nc1ccc(S(=O)(=O)Cc2ccc3c(c2)CNC3)cc1 (centres unmarked) [H1397, N-(4-((isoindolin-5-ylmethyl)sulfonyl)phenyl)-1-methyl-3,4-dihydroisoquinoline-2(1H)-carboxamide]	0.0678	1.1	35.1	> 30	32	–	–	–
CC(NC(=O)Nc1ccc(S(=O)(=O)Nc2ccc3c(c2)CCN(C)C3)cc1)c1cccc(F)c1F (centres unmarked) [H1346, 4-(3-(1-(2,3-difluorophenyl)ethyl)ureido)-N-(2-methyl-1,2,3,4-tetrahydroisoquinolin-6-yl)benzenesulfonamide]	0.00698	0.0191	72.9	> 30	69.3	–	–	–
C[C@@H](NC(=O)Nc1ccc(S(=O)(=O)Nc2ccc3c(c2)CN(C)C3)cc1)c1ccccc1 [H1337, (R)-N-(2-methylisoindolin-5-yl)-4-(3-(1-phenylethyl)ureido) benzenesulfonamide]	0.0105	0.0241	58.6	> 30	39.2	–	–	–
CC(NC(=O)Nc1ccc(S(=O)(=O)Cc2ccc3c(c2)CN(C)C3)cc1)c1c(F)cccc1F (centres unmarked) [H1429, 1-(1-(2,6-difluorophenyl)ethyl)-3-(4-(((2-methylisoindolin-5-yl)methyl)sulfonyl)phenyl)urea]	0.00731	0.16	65.2	> 30	63.6	–	–	–
CC1Cc2cc(CS(=O)(=O)c3ccc(NC(=O)NC(C)c4ccccc4)cc3)ccc2CN1 (centres unmarked) [H1406, 1-(4-(((3-methyl-1,2,3,4-tetrahydroisoquinolin-6-yl)methyl)sulfonyl)phenyl)-3-(1-phenylethyl)urea]	0.00792	0.0855	15	> 30	22.2	–	–	–
Cc1oc(=O)oc1COC(=O)N1Cc2ccc(CS(=O)(=O)c3ccc(NC(=O)NC(C)c4ccccc4)cc3)cc2C1 (centres unmarked) [H1256, (5-methyl-2-oxo-1,3-dioxol-4-yl)methyl 5-(((4-(3-(1-phenylethyl)ureido)phenyl)sulfonyl)methyl)isoindoline-2-carboxylate]	0.124	0.09	268.4	> 30	272.6	–	–	–
CCc1ccc(Cl)c(C(C)NC(=O)Nc2ccc(S(=O)(=O)Cc3ccc4c(c3)CNC4)cc2)c1 (centres unmarked) [H1281, 1-(1-(2-chloro-5-ethylphenyl)ethyl)-3-(4-((isoindolin-5-ylmethyl)sulfonyl)phenyl)urea]	0.0153	0.039	63.8	> 30	47.8	–	–	–
CC(NC(=O)Nc1ccc(S(=O)(=O)Cc2ccc3c(c2)CN(C)C3)cc1)c1cc(F)cc(F)c1 (centres unmarked) [H1446, 1-(1-(3,5-difluorophenyl)ethyl)-3-(4-(((2-methylisoindolin-5-yl)methyl)sulfonyl)phenyl)urea]	0.009	0.0965	177.6	> 30	58.5	–	–	–
CC(NC(=O)Nc1ccc(S(=O)(=O)Cc2ccc(CN3CCCC3)cc2)cc1)c1ccccc1 (centres unmarked) [H1276, 1-(1-phenylethyl)-3-(4-((4-(pyrrolidin-1-ylmethyl)benzyl)sulfonyl)phenyl)urea]	0.0234	0.076	109.7	> 30	247	–	–	–
COc1cc(S(=O)(=O)Cc2ccc3c(c2)CN(C)C3)ccc1NC(=O)NC(C)c1ccccc1F (centres unmarked) [H1426, 1-(1-(2-fluorophenyl)ethyl)-3-(2-methoxy-4-(((2-methylisoindolin-5-yl)methyl)sulfonyl)phenyl)urea]	0.0034	0.0529	77.3	> 30	80.6	–	–	–
COc1cc(S(=O)(=O)Cc2ccc3c(c2)CNC3)ccc1NC(=O)N(O)C(C)c1ccccc1 (centres unmarked) [H1517, 1-hydroxy-3-(4-((isoindolin-5-ylmethyl)sulfonyl)-2-methoxyphenyl)-1-(1-phenylethyl)urea]	–	–	25.6	–	56.6	0.0067	0.0105	> 30
CC(NC(=O)Nc1ccc(S(=O)(=O)Cc2ccc3c(c2)CCN(C)C3)cc1)c1cccc(F)c1F (centres unmarked) [H1345, 1-(1-(2,3-difluorophenyl)ethyl)-3-(4-(((2-methyl-1,2,3,4-tetrahydroisoquinolin-6-yl)methyl)sulfonyl)phenyl)urea]	0.0042	0.0052	86.5	> 30	166.2	–	–	–
COc1cc(S(=O)(=O)Cc2ccc3c(c2)CCN(C)C3)ccc1NC(=O)NC(C)c1ccccc1 (centres unmarked) [H1387, 1-(2-methoxy-4-(((2-methyl-1,2,3,4-tetrahydroisoquinolin-6-yl)methyl)sulfonyl)phenyl)-3-(1-phenylethyl)urea]	0.0037	0.0074	86.7	> 30	167.5	–	–	–
COc1cc(S(=O)(=O)Cc2ccc3c(c2)CCNC3)ccc1NC(=O)N[C@H](C)c1cccc(Cl)c1Cl [H1481, (R)-1-(1-(2,3-dichlorophenyl)ethyl)-3-(2-methoxy-4-(((1,2,3,4-tetrahydroisoquinolin-6-yl)methyl)sulfonyl)phenyl)urea]	–	–	< 10	–	13.2	0.0002	–	> 30
C[C@@H](NC(=O)Nc1ccc(S(=O)(=O)Cc2ccc3c(c2)CN(C)C3)cc1)c1ccccc1 [H1300, (R)-1-(4-(((2-methylisoindolin-5-yl)methyl)sulfonyl)phenyl)-3-(1-phenylethyl)urea]	–	–	124.3	> 30	42.1	–	–	–
C[C@@H](NC(=O)Nc1ccc(S(=O)(=O)Cc2ccc3c(c2)CN(C)C3)cc1)c1ccccc1 [H1356, (R)-1-(4-(((2-methylisoindolin-5-yl)methyl)sulfonyl)phenyl)-3-(1-phenylethyl)urea]	–	–	382.5	> 30	126	–	–	–
CC(NC(=O)Nc1c(F)cc(S(=O)(=O)Cc2ccc3c(c2)CNC3)cc1F)c1ccccc1.O=C(O)C(F)(F)F (centres unmarked) [H1404, 1-(2,6-difluoro-4-((isoindolin-5-ylmethyl)sulfonyl)phenyl)-3-(1-phenylethyl)urea]	–	1.62	10	> 30	19	–	–	–
